One may read the melting point as the temperature, or range, at which the solid turns liquid.

In the case of `Cc1onc(-c2ccccc2)c1COC(=O)NCCC1CCN(c2ccc3cc(Cl)ccc3n2)CC1` [Compound 6, 5-methyl-3-phenylisoxazol-4-ylmethyl 2-[1-(6-chloroquinolin-2-yl)piperidin-4-yl]ethylcarbamate], the melting point lay within 110 to 112 °C.

Consider `CNC(=O)c1cc(COC(=O)NCCC2(C)CCN(c3cnc4cc(Cl)ccc4n3)CC2)on1` [Compound 78, 3-methylcarbamoylisoxazol-5-ylmethyl {2-[1-(6-chloroquinoxalin-2-yl)-4-methylpiperidin-4-yl]ethyl}carbamate], for which the melting point fell in the range of 167 to 169 °C.

For `CC(C)CC(OC(=O)NCCC1CCN(c2cccc(-c3ccc(F)cc3)n2)CC1)c1ccoc1` (racemic), the melting point was 101 to 103 °C.

The molecule `NC(=O)c1cc(COC(=O)NCCC2CCN(c3ccc(-c4cccc(F)c4)cn3)CC2)on1` [Compound 28, 3-carbamoylisoxazol-5-ylmethyl 2-[5′-(3-fluorophenyl)-3,4,5,6-tetrahydro-2H-[1,2′]bipyridinyl-4-yl]ethylcarbamate] yielded a melting point of 172 to 176 °C.

As for `O=C(NCCC1CCN(c2ccc3cc(Cl)ccc3n2)CC1)OCc1cc(C(=O)O)no1` [Compound 53, 5-{2-[1-(6-chloroquinolin-2-yl)piperidin-4-yl]ethylcarbamoyloxymethyl}isoxazole-3-carboxylic acid], the melting point lay in the range of 180 to 182 °C.

For the molecule `CNC(=O)c1cc(COC(=O)NC2CCN(c3nccc(C(F)(F)F)n3)CC2)on1` [Compound 70, 3-methylcarbamoylisoxazol-5-ylmethyl [1-(4-trifluoromethylpyrimidin-2-yl)piperidin-4-yl]carbamate], the melting point is 197 to 199 °C.

`CNC(=O)c1cc(COC(=O)NCCC2CCN(c3cnc(-c4ccc(F)cc4)cn3)CC2)on1` [Compound 69, 3-methylcarbamoylisoxazol-5-ylmethyl (2-{1-[5-(4-fluorophenyl)pyrazin-2-yl]piperidin-4-yl}ethyl)carbamate] showed a melting point of 181.5 to 183.5 °C.

Regarding `CCOC(=O)c1cc(COC(=O)NCCC2CCN(c3ccc4cc(Cl)ccc4n3)CC2)on1` [Compound 71, ethyl 5-{2-[1-(6-chloroquinolin-2-yl)piperidin-4-yl]-ethylcarbamoyloxymethyl}isoxazole-3-carboxylate], the melting point lay in the range of 117 to 119 °C.

As for `CNC(=O)c1cc(COC(=O)NC2CCN(c3nnc(Cl)c4ccccc34)CC2)on1` [Compound 75, 3-methylcarbamoylisoxazol-5-ylmethyl [1-(4-chlorophthalazin-1-yl)piperidin-4-yl]carbamate], the melting point was 208 to 210 °C.

Molecule `CNC(=O)c1cc(COC(=O)NC2CCN(c3ccc([N+](=O)[O-])cc3C(F)(F)F)CC2)on1` [Compound 76, 3-methylcarbamoylisoxazol-5-ylmethyl [1-(4-nitro-2-trifluoromethylphenyl)piperidin-4-yl]carbamate] yielded a melting point of 156 to 158 °C.

With `NC(=O)c1cc(COC(=O)NC2CCCN(c3nccc(C(F)(F)F)n3)CC2)on1` (racemic) [Compound 74, 3-carbamoylisoxazol-5-ylmethyl (±)[1-(4-trifluoromethylpyrimidin-2-yl)azepan-4-yl]carbamate], the melting point was 171 to 173 °C.

In turn, `CNC(=O)c1cc(COC(=O)NC2CCN(c3cnc4cc(Cl)ccc4n3)CC2)on1` [Compound 77, 3-methylcarbamoylisoxazol-5-ylmethyl [1-(6-chloroquinoxalin-2-yl)piperidin-4-yl]carbamate] had a melting point of 232 to 234 °C.

`NC(=O)c1cc(COC(=O)NCCC2CN(c3nccc(C(F)(F)F)n3)C2)on1` [Compound 82, 3-carbamoylisoxazol-5-ylmethyl {2-[1-(4-trifluoromethylpyrimidin-2-yl)azetidin-3-yl]ethyl}carbamate] registered a melting point of 163 to 165 °C.

Molecule `CCOC(=O)c1cc(COC(=O)NCC2(F)CCN(c3ccc4cc(Cl)ccc4n3)CC2)on1` [Compound 56, ethyl 5-[1-(6-chloroquinolin-2-yl)-4-fluoropiperidin-4-ylmethylcarbamoyloxymethyl]isoxazole-3-carboxylate] had a melting point of 132 to 134 °C.

In turn, `NC(=O)c1cc(COC(=O)NCCC2CCN(c3cnc(-c4ccc(F)cc4)cn3)CC2)on1` [Compound 68, 3-carbamoylisoxazol-5-ylmethyl (2-{1-[5-(4-fluorophenyl)-pyrazin-2-yl]piperidin-4-yl}ethyl)carbamate] yielded a melting point of 187 to 189 °C.

The molecule `CC(C)CC(OC(=O)NCCC1CCN(c2ccc3cc(Cl)ccc3n2)CC1)c1ccoc1` (racemic) registered a melting point of 97 to 99 °C.

`CCOC(=O)c1cc(COC(=O)NCC2(F)CCN(c3nccc(C(F)(F)F)n3)CC2)on1` [Compound 51, ethyl 5-[4-fluoro-1-(4-trifluoromethylpyrimidin-2-yl)-piperidin-4-ylmethylcarbamoyloxymethyl]isoxazole-3-carboxylate]: the melting point lay within 136 to 138 °C.

Regarding `CC(C)c1nc(COC(=O)NCCC2CCN(c3ccc(-c4ccc(F)cc4)cn3)CC2)no1` [Compound 11, 5-isopropyl[1,2,4]oxadiazol-3-ylmethyl 2-[5′-(4-fluorophenyl)-3,4,5,6-tetrahydro-2H-[1,2′]bipyridinyl-4-yl]-ethylcarbamate], the melting point lay in the range of 112 to 113 °C.

With `COc1ccc(-c2nnc(COC(=O)NCCC3CCN(c4ccc5cc(Cl)ccc5n4)CC3)o2)cc1` [Compound 14, 5-(4-methoxyphenyl)[1,3,4]oxadiazol-2-ylmethyl 2-[1-(6-chloroquinolin-2-yl)piperidin-4-yl]ethylcarbamate], the melting point was 154 to 156 °C.

For `Cn1ccc(COC(=O)NCCC2CCN(c3ccc(-c4ccc(F)cc4)cn3)CC2)n1` [Compound 8, 1-methyl-1H-pyrazol-3-ylmethyl 2-[5′-(4-fluorophenyl)-3,4,5,6-tetrahydro-2H-[1,2′]bipyridinyl-4-yl]ethylcarbamate], the melting point lay within 154 to 156 °C.

On to `O=C(NCCC1CCN(c2ccc3cc(Cl)ccc3n2)CC1)OCc1csnn1` [Compound 18, [1,2,3]thiadiazol-4-ylmethyl 2-[1-(6-chloroquinolin-2-yl)piperidin-4-yl]ethylcarbamate], for which the melting point lay within 146 to 148 °C.

Regarding `CNC(=O)c1cc(COC(=O)NCCC2CCN(c3cncc(-c4ccc(F)cc4)n3)CC2)on1` [Compound 32, 3-methylcarbamoylisoxazol-5-ylmethyl 2-{1-[6-(4-fluorophenyl)pyrazin-2-yl]piperidin-4-yl}ethylcarbamate], the melting point fell in the range of 150 to 152 °C.

`CNC(=O)c1cc(COC(=O)NCC2CCN(c3nnc(Cl)c4ccccc34)C2)on1` (racemic) [Compound 79, 3-methylcarbamoylisoxazol-5-ylmethyl (±)[1-(4-chlorophthalazin-1-yl)pyrrolidin-3-ylmethyl]carbamate]: the melting point was in the range of 159 to 161 °C.

In turn, `O=C(NCCC1CCN(c2ccc3cc(Cl)ccc3n2)CC1)OCc1nsc(-c2ccc(Cl)cc2)n1` [Compound 17, 5-(4-chlorophenyl)[1,2,4]thiadiazol-3-ylmethyl 2-[1-(6-chloroquinolin-2-yl)piperidin-4-yl]ethylcarbamate] gave a melting point of 191 to 193 °C.

`CNC(=O)c1cc(COC(=O)NCCC2CN(c3nccc(C(F)(F)F)n3)C2)on1` [Compound 83, 3-methylcarbamoylisoxazol-5-ylmethyl {2-[1-(4-trifluoromethylpyrimidin-2-yl)azetidin-3-yl]ethyl}carbamate] registered a melting point of 155 to 157 °C.

In turn, `CC(C)c1nc(COC(=O)NCC2CCN(c3nccc(C(F)(F)F)n3)CC2)no1` [Compound 55, 5-isopropyl[1,2,4]oxadiazol-3-ylmethyl [1-(4-trifluoromethylpyrimidin-2-yl)piperidin-4-yl]methylcarbamate] gave a melting point of 104 to 106 °C.

In turn, `CNC(=O)c1cc(COC(=O)NCCC2CCN(c3ccc(-c4ccc(F)cc4)cn3)CC2)on1` [Compound 26, 3-methylcarbamoylisoxazol-5-ylmethyl 2-[5′-(4-fluorophenyl)-3,4,5,6-tetrahydro-2H-[1,2′]bipyridinyl-4-yl]-ethylcarbamate] showed a melting point of 191 to 193 °C.

Take `NC(=O)c1coc(COC(=O)NCCC2CCN(c3ccc(-c4ccc(F)cc4)cn3)CC2)n1` [Compound 21, 4-carbamoyloxazol-2-ylmethyl 2-[5′-(4-fluorophenyl)-3,4,5,6-tetrahydro-2H-[1,2′]bipyridinyl-4-yl]ethylcarbamate]: the melting point was in the range of 206 to 208 °C.

As for `O=C(NCCC1CCN(c2ccc3cc(Cl)ccc3n2)CC1)OCc1nc(-c2ccc(Cl)cc2)no1` [Compound 4, 3-(4-chlorophenyl)[1,2,4]oxadiazol-5-ylmethyl 2-[1-(6-chloroquinolin-2-yl)piperidin-4-yl]ethylcarbamate], the melting point lay within 134 to 136 °C.

As to `NC(=O)c1cc(COC(=O)NCCC2CCN(c3cccc(-c4ccc(F)cc4)n3)CC2)on1` [Compound 24, 3-carbamoylisoxazol-5-ylmethyl 2-[6′-(4-fluorophenyl)-3,4,5,6-tetrahydro-2H-[1,2′]bipyridinyl-4-yl]ethylcarbamate], the melting point is 172 to 174 °C.

The molecule `O=C(NCCC1CCN(c2ccc3cc(Cl)ccc3n2)CC1)OCc1nc(-c2ccc(F)cc2)no1` [Compound 15, 3-(4-fluorophenyl)[1,2,4]oxadiazol-5-ylmethyl 2-[1-(6-chloroquinolin-2-yl)piperidin-4-yl]ethylcarbamate] returned a melting point of 160 to 162 °C.

`O=C(NCCC1CCN(c2ccc3cc(Cl)ccc3n2)CC1)OCc1nc(-c2cccc(F)c2)no1` [Compound 16, 3-(3-fluorophenyl)[1,2,4]oxadiazol-5-ylmethyl 2-[1-(6-chloroquinolin-2-yl)piperidin-4-yl]ethylcarbamate]: the melting point lay in the range of 134 to 136 °C.

Consider `O=C(NCCC1CCN(c2ccc3cc(Cl)ccc3n2)CC1)OCc1cc(-c2ccc(Cl)cc2)no1` [Compound 3, 3-(4-chlorophenyl)isoxazol-5-ylmethyl 2-[1-(6-chloroquinolin-2-yl)piperidin-4-yl]ethylcarbamate], for which the melting point fell in the range of 139 to 140 °C.

Values taken from patent US8716289B2, “Carbamate derivatives of alkyl-heterocycles, preparation thereof and therapeutic use thereof” (Sanofi, priority 2008, dated 2014).
